“Also recorded” adds a separate entry of the source. Marks after values point to notes of the source that are not given here.
Experiments:
Assay type in all cases: in vivo, human
[1] = tested on: Adult patients with moderate to severe Major Depressive Disorder (MDD); assay: Phase 2 double-blind placebo-controlled trial (Part B): safety and tolerability
Description: In the randomized, double-blind, parallel-group, placebo-controlled trial, eligible patients (with a minimum total score of 22 on the Hamilton Rating Scale for Depression) were stratified based on use of antidepressant treatment (current/stable or not treated/withdrawn ≥30 days) and randomized in a 1:1 ratio to receive Compound 1 Capsules (30 mg) or matching placebo. All doses of study drug were administered at night with food. The study consisted of a 14-day treatment period, and a 4-week follow-up period. The mean HAM-D total scores at baseline were 25.2 for the Compound 1 group and 25.7 for the placebo group (overall range 22-33), representing patients with moderate to severe MDD. Approximately 90 percent of patients in each group completed the study.

[2] = Phase 2 open-label study (Part A): plasma pharmacokinetics; settings: 30 mg oral solution once daily with food, N=13
Description: (§1) Compound 1 was provided as a 6 mg/mL stock aqueous solution, which was further diluted with sterile water to achieve the selected dose that was administered as an oral solution. Participants received an open label 30 mg Compound 1 oral dose administered at 8:00 PM (+/−15 minutes) with food on Days 1 through 14. Subjects who experienced drug-related moderate or severe adverse events (as judged by the study investigators) while receiving the 30 mg dose of study drug were to have their dose reduced to 20 mg for the remaining treatment period. Any subjects not tolerating a 20 mg dose were to be terminated from the study. Vital signs were collected daily. Other study procedures and plasma collection for PK parameters were conducted at various times during the 14-day open label treatment period (procedure details in the Supplemental Appendix). Treatment follow-up was conducted on an outpatient basis and included a follow-up visit at 1 week (21+/−1 day) and at 2 weeks (28+/−1 day) after the last dose of the study drug.
(§2) The primary endpoint of safety and tolerability of Compound 1 was assessed by the frequency and severity of adverse events, vital signs, changes in clinical laboratory measures, physical exams, electrocardiograms (ECGs), the Stanford Sleepiness Scale (SSS) score, and suicide ideation using the Columbia-Suicide Severity Rating Scale (C-SSRS, Supplemental Table 1). Secondary efficacy endpoints included: change from baseline in HAM-D total score, HAM-D response, defined as having a 50% or greater reduction from baseline in HAM-D total score, HAM-D remission, defined as having a HAM-D total score of ≤7, HAM-A change from baseline, and MADRS score change from baseline. The PK profile of Compound 1 was also determined from plasma samples.

[3] = tested on: Subjects with Major Depressive Disorder; assay: Phase 2 open-label study (Part A): HAM-D, MADRS, HAM-A efficacy
Description: (§3) In this multicenter, open-label, Phase 2 clinical trial, subjects were administered 30 mg Compound 1 on Days 1-14 and assessed through Day 28. Reductions in depressive and anxiety symptoms were assessed by the Hamilton Rating Scales for Depression and Anxiety (HAM-D and HAM-A), and the Montgomery-Asberg Depression Rating Scale (MADRS). Safety and tolerability were assessed via standard safety parameters. Pharmacokinetic parameters were also evaluated.
Written informed consent was provided at screening and was required for enrollment. The diagnosis of MDD was made using the Structured Clinical Interview for Diagnostic and Statistical Manual of Mental Disorders, Fifth Edition (DSM-5) Axis I Disorders (SCID-I), as performed by a qualified healthcare professional. Subjects were also screened with the 17-item Hamilton Rating Scale for Depression (HAM-D) to ensure symptom severity of at least 22. Hamilton Anxiety Rating Scale (HAM-A), Montgomery-Asberg Depression Rating Scale (MADRS), and Clinical Global Impression-Severity (CGI-S) scale were also administered. Using the 17-item HAM-D scale, a patient with a summed score of 17-23 was considered to have moderate depression; a summed score of ≥24 was considered severe depression. Patient histories and concomitant medication information were collected. The study population included subjects of both sexes, ages 18-65 years old, inclusive (inclusion/exclusion criteria below). Subjects remained as inpatients during the first 7 days of the study period and per Investigator's judgement thereafter. Subjects received the standard of care for adult inpatients diagnosed with MDD and were allowed to remain on a stable dose of psychotropic medications that were initiated at least 14 days prior to screening.
as §1, §2
Continuous parameters were summarized as n, mean, and standard deviation, with categorical variables summarized as frequency counts and percentages. For HAM-D, HAM-A, and MADRS total scores, p-values for change from baseline values were calculated based on mixed effects model for repeated measures with visit as fixed effect, adjusting for baseline total score. […]

[4] = tested on: Subjects with Major Depressive Disorder; assay: Phase 2 open-label study (Part A): safety and tolerability (TEAEs, C-SSRS); settings: N=13
Description: as §3, §1, §2
Subjects were monitored for safety during the Treatment and Follow-up Periods including monitoring for adverse events/serious adverse events, routine clinical laboratory assessments, physical examination, vital signs, and ECG. During the Treatment Period, subjects received study drug as long as there are no dose-limiting safety/tolerability concerns

[5] = Day 15, 30 mg once daily Days 1-14, N=13

## C[C@@]1(O)CC[C@H]2[C@H](CC[C@@H]3[C@@H]2CC[C@]2(C)[C@@H](C(=O)Cn4cc(C#N)cn4)CC[C@@H]32)C1 [Compound 1, 1-(2-((3R,5R,8R,9R,10S,13S,14S,17S)-3-hydroxy-3,13-dimethylhexadecahydro-1H-cyclopenta[a]phenanthren-17-yl)-2-oxoethyl)-1H-pyrazole-4-carbonitrile]
[1]; Capsules 30 mg for 14 days
  deaths, serious or severe adverse events: no deaths, serious or severe adverse events
  most common AEs: headache, dizziness, nausea, and somnolence
  tolerability: generally well-tolerated; also recorded: generally well tolerated
[1]; Capsules 30 mg for 14 days, placebo 46%
  overall incidence of patients who experienced adverse events: 53%
[1]; two patients, none with placebo
  rate of discontinuation from dosing of study drug due to adverse events: 4.4%
[2]; Day 7, steady state
  Cavg ss, geometric mean: 41.4 ng/mL
[2]; human, plasma, Day 7, steady state, MDD subjects, read-out: Cmax, geometric mean
  Cmax: 101 ng/mL
[2]; human, plasma, Day 7, steady state, read-out: AUC0-t, geometric mean
  AUC(0-t): 992 ng·h/mL
[2]; human, plasma, Day 7, steady state, read-out: AUCinf, geometric mean
  AUC(0-inf): 1150 ng·h/mL
[2]; human, plasma, Day 7, read-out: T1/2, median (converted)
  half-life: 618 min
[2]; human, plasma, Day 7, read-out: Tmax, median
  Tmax: 1.1 h
[3]; Day 15, end of the treatment period, N=13
  HAM-D remission rate (HAM-D total score ≤7): 62%
[3]; [5]
  HAM-A total score, mean decrease from baseline: 15.5 points
  HAM-D total score, mean decrease from baseline: 19.9 points
  MADRS total score, mean decrease from baseline: 26.4 points
[3]; Day 15, 30 mg once daily Days 1-14, baseline 23.2, N=13
  HAM-A mean total score: 7.7
[3]; Day 15, 30 mg once daily Days 1-14, baseline 36.9, N=13
  MADRS mean total score: 10.5
[3]; Day 15, 30 mg oral solution once daily Days 1-14 with food, baseline 27.2, N=13
  HAM-D mean total score: 7.3
[3]; Day 15, absence of antidepressants at enrollment (n=8)
  HAM-D response rate: 75.0%
[3]; Day 15, all 13 subjects
  HAM-D response rate (total score reduced by at least 50%): 85%
[3]; Day 15, presence of antidepressants at enrollment (n=5)
  HAM-D response rate: 100%
[3]; Day 28, absence of antidepressants at enrollment (n=8)
  HAM-D response rate: 75%
[3]; Day 28, presence of antidepressants at enrollment (n=5)
  HAM-D response rate: 80%
[3]; by Day 6, N=13
  HAM-D remission rate (HAM-D total score ≤7): 39%
[3]; p<0.05, 30 mg once daily
  time at which significant reductions in depressive symptoms (HAM-D) were seen: as early as Day 2
[4]; 30 mg once daily Days 1-14
  At least one TEAE, number of subjects: 12 subjects
  tolerability: generally well tolerated
[4]; Day 2-15 (yes on Days 10-13)
  C-SSRS Subject engaged in non-suicidal self-injurious behavior, number of subjects who answered yes: 1*
[4]; Day 2-15
  C-SSRS Aborted attempt, number of subjects who answered yes: 0
  C-SSRS Actual attempt, number of subjects who answered yes: 0
  C-SSRS Interrupted attempt, number of subjects who answered yes: 0
  C-SSRS Preparatory acts or behavior, number of subjects who answered yes: 0
  C-SSRS Suicidal behavior, number of subjects who answered yes: 0
[4]
  Dizziness, number of subjects: 3 subjects
  Dizziness, percent of subjects: (23.1%)
  Drug-related TEAE, number of subjects: 11 subjects
  Drug-related TEAE, percent of subjects: (84.6%)
  Headache, number of subjects: 4 subjects
  Headache, percent of subjects: (30.8%)
  Myalgia, number of subjects: 3 subjects
  Myalgia, percent of subjects: (23.1%)
  Nasal Congestion, number of subjects: 2 subjects
  Nasal Congestion, percent of subjects: (15.4%)
  Sedation, number of subjects: 6 subjects
  Sedation, percent of subjects: (46.2%)
  Serious AE, number of subjects: 0 subjects
  Severe TEAE, number of subjects: 0 subjects
  Somnolence, number of subjects: 3 subjects
  Somnolence, percent of subjects: (23.1%)
  TEAE leading to death, number of subjects: 0 subjects
  TEAE leading to drug discontinuation, number of subjects: 0 subjects
  changes in clinical hematology, urinalysis, vital signs, or ECGs: no clinically relevant changes
  serious adverse events (SAEs) or discontinuations due to AEs: no serious adverse events (SAEs) or discontinuations due to AEs
